Test results as given in ChEMBL document CHEMBL5036364, “Cadinane-Type Sesquiterpenoids with Cytotoxic Activity from the Infected Stems of the Semi-mangrove Hibiscus tiliaceus” (J Nat Prod, 2022).

Assays:
HepG2 = experiment: Cytotoxicity against human HepG2 cells assessed as inhibition of cell growth n presence of 10% fetal bovine serum measured after 48 hrs incubation by MTT assay; format: functional, cell-based; conditions: HepG2, 48 h
Huh-7 = experiment: Cytotoxicity against human Huh-7 cells assessed as inhibition of cell growth in presence of 10% fetal bovine serum measured after 48 hrs incubation by MTT assay; format: functional, cell-based; conditions: Huh-7, 48 h

| Compound | IC50 (HepG2) [µM] | IC50 (Huh-7) [µM] |
| --- | --- | --- |
| COc1c(O)c(C)cc2c(C(C)C)cc(O)c(C=O)c12 | > 10 | > 10 |
| Cc1cc2c(C(C)C)cc(O)c(C=O)c2oc1=O | 3.7 | 4 |
| CO[C@@]1(C)C[C@@H]2c3c(coc3C1=O)C(=O)C[C@H]2C(C)C | 4.8 | 6.6 |
| COc1c(C)cc2c(C(C)C)cc(O)c(C=O)c2c1O | > 10 | > 10 |
| CC(C)[C@@H]1C=Cc2coc3c2[C@H]1C[C@@H](C)C3=O | 6.8 | 6.4 |
